# Measured values as given in US8299048B2, “Hexahydrocyclopentyl[f]indazole sulfonamides and derivatives thereof as selective glucocorticoid receptor modulators” (Merck Sharp & Dohme Corp., priority 2008, dated 2012).
# Target: T1, glucocorticoid receptor (Homo sapiens, UniProt P04150)
# T1 construct: endogenous in cells
# T1 sequence (P04150 1-777): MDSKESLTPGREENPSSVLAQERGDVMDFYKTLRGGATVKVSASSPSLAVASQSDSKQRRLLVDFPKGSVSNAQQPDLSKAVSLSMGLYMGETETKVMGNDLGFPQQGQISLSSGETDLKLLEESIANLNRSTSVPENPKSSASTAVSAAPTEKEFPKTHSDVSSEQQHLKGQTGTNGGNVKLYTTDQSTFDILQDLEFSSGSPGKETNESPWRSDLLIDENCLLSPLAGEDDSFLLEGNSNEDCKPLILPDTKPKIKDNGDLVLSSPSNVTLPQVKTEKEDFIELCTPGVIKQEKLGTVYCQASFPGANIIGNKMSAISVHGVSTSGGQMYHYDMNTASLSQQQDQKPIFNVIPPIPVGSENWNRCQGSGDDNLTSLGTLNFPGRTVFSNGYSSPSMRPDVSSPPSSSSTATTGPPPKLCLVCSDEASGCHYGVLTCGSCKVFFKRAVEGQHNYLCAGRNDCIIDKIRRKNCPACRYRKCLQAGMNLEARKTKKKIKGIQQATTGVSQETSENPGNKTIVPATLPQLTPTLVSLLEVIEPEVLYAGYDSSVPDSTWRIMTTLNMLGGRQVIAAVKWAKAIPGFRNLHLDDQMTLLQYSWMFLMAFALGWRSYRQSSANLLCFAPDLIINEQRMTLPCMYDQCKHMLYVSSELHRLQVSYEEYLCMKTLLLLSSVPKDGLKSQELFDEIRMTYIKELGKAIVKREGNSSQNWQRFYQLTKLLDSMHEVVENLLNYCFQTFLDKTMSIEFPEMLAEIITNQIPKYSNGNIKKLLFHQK
# Assay: Ligand binding assay (GR BIND)
# Method in brief: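 Cytosol from freeze–thawed cells in TEGM (pH 7.2, 10 mM molybdate) was incubated overnight at 4 °C with compound and [3H]-dexamethasone trace (added as 6 nM solution), 2% EtOH final. Bound ligand was captured on hydroxylapatite, filtered, washed and scintillation counted. Values were calculated with dexamethasone as reference.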
row,Ki [nM],Structure (SMILES)
1,1.8,"C[C@]12Cc3cnn(-c4ccc(F)cc4)c3C=C1CC[C@@H]2CN(CC(O)C(F)(F)F)S(=O)(=O)Cc1cccnc1 (stereo partly drawn) [Example 149, N-{[(4αR,5S)-1-(4-fluorophenyl)-4α-methyl-1,4,4α,5,6,7-hexahydrocyclopenta[f]indazol-5-yl]methyl}-1-pyridin-3-yl-N-(3,3,3-trifluoro-2-hydroxypropyl)methanesulfonamide]"
2,1.5,"Cn1cc(S(=O)(=O)N(CCc2ccccn2)C[C@H]2CCC3=Cc4c(cnn4-c4ccc(F)cc4)C[C@@]32C)c(C(F)(F)F)n1 [Example 150, N-{[(4αR,5S)-1-(4-fluorophenyl)-4α-methyl-1,4,4α,5,6,7-hexahydrocyclopenta[f]indazol-5-yl]methyl}-1-methyl-N-(2-pyridin-2-ylethyl)-3-(trifluoromethyl)-1H-pyrazole-4-sulfonamide]"
3,1.3,"CCCS(=O)(=O)N(CCc1ccccn1)C[C@H]1CCC2=Cc3c(cnn3-c3ccc(F)cc3)C[C@@]21C [Example 151, N-{[(4αR,5S)-1-(4-fluorophenyl)-4α-methyl-1,4,4α,5,6,7-hexahydrocyclopenta[f]indazol-5-yl]methyl}-N-(2-pyridin-2-ylethyl)propane-1-sulfonamide]"
4,1.6,"C[C@]12Cc3cnn(-c4ccc(F)cc4)c3C=C1CC[C@@H]2CN(CCc1ccccn1)S(=O)(=O)CCN1C(=O)c2ccccc2C1=O [Example 152, 2-(1,3-dioxo-1,3-dihydro-2H-isoindol-2-yl)-N-{[(4αR,5S)-1-(4-fluorophenyl)-4α-methyl-1,4,4α,5,6,7-hexahydrocyclopenta[f]indazol-5-yl]methyl}-N-(2-pyridin-2-ylethyl)ethanesulfonamide]"
5,1.2,"C[C@]12Cc3cnn(-c4ccc(F)cc4)c3C=C1CC[C@@H]2CN(CCc1ccccn1)S(=O)(=O)Cc1ccccc1C(F)(F)F [Example 153, N-{[(4αR,5S)-1-(4-fluorophenyl)-4α-methyl-1,4,4α,5,6,7-hexahydrocyclopenta[f]indazol-5-yl]methyl}-N-(2-pyridin-2-ylethyl)-1-[2-(trifluoromethyl)phenyl]methanesulfonamide]"
6,1.3,"C[C@]12Cc3cnn(-c4ccc(F)cc4)c3C=C1CC[C@@H]2CN(CC(O)C(F)F)S(=O)(=O)Cc1cccnc1 (stereo partly drawn) [Example 154, N-(3,3-difluoro-2-hydroxypropyl)-N-{[(4αR,5S)-1-(4-fluorophenyl)-4α-methyl-1,4,4α,5,6,7-hexahydrocyclopenta[f]indazol-5-yl]methyl}-1-pyridin-3-ylmethanesulfonamide]"
7,2.9,"CCCS(=O)(=O)N(CC(O)C(F)F)C[C@H]1CCC2=Cc3c(cnn3-c3ccc(F)cc3)C[C@@]21C (stereo partly drawn) [Example 155, N-(3,3-difluoro-2-hydroxypropyl)-N-{[(4αR,5S)-1-(4-fluorophenyl)-4α-methyl-1,4,4α,5,6,7-hexahydrocyclopenta[f]indazol-5-yl]methyl}propane-1-sulfonamide]"
8,2.5,"Cn1cc(S(=O)(=O)N(CC(O)C(F)F)C[C@H]2CCC3=Cc4c(cnn4-c4ccc(F)cc4)C[C@@]32C)c(C(F)(F)F)n1 (stereo partly drawn) [Example 156, N-(3,3-difluoro-2-hydroxypropyl)-N-{[(4αR,5S)-1-(4-fluorophenyl)-4α-methyl-1,4,4α,5,6,7-hexahydrocyclopenta[f]indazol-5-yl]methyl}-1-methyl-3-(trifluoromethyl)-1H-pyrazole-4-sulfonamide]"
9,0.8,"Cn1cc(S(=O)(=O)N(CC(O)c2ccccn2)C[C@H]2CCC3=Cc4c(cnn4-c4ccc(F)cc4)C[C@@]32C)c(C(F)(F)F)n1 (stereo partly drawn) [Example 157, N-{[(4αR,5S)-1-(4-fluorophenyl)-4α-methyl-1,4,4α,5,6,7-hexahydrocyclopenta[f]indazol-5-yl]methyl}-N-(2-hydroxy-2-pyridin-2-ylethyl)-1-methyl-3-(trifluoromethyl)-1H-pyrazole-4-sulfonamide]"
10,4.2,"C[C@]12Cc3cnn(-c4ccc(F)cc4)c3C=C1CC[C@@H]2CN(CC=O)S(=O)(=O)c1ccccc1F [Example 158, 2-fluoro-N-{[(4αR,5S)-1-(4-fluorophenyl)-4α-methyl-1,4,4α,5,6,7-hexahydrocyclopenta[f]indazol-5-yl]methyl}-N-(2-oxoethyl)benzenesulfonamide]"
11,1.9,"COC(=O)c1ccccc1CCN(C[C@H]1CCC2=Cc3c(cnn3-c3ccc(F)cc3)C[C@@]21C)S(=O)(=O)CC(F)(F)F [Example 159, methyl 2-(2-{{[(4αR,5S)-1-(4-fluorophenyl)-4α-methyl-1,4,4α,5,6,7-hexahydrocyclopenta[f]indazol-5-yl]methyl}[(2,2,2-trifluoroethyl)sulfonyl]amino}ethyl)benzoate]"
12,3.4,"COC(=O)c1cc(Cl)ccc1CCN(C[C@H]1CCC2=Cc3c(cnn3-c3ccc(F)cc3)C[C@@]21C)S(=O)(=O)CC(F)(F)F [Example 160, methyl 5-chloro-2-(2-{{[(4αR,5S)-1-(4-fluorophenyl)-4α-methyl-1,4,4α,5,6,7-hexahydrocyclopenta[f]indazol-5-yl]methyl}[(2,2,2-trifluoroethyl)sulfonyl]amino}ethyl)benzoate]"
13,4.8,"Cc1noc(C)c1S(=O)(=O)NC[C@H]1CCC2=Cc3c(cnn3-c3ccc(F)cc3)C[C@@]21C [Example 161, N-{[(4αR,5S)-1-(4-fluorophenyl)-4α-methyl-1,4,4α,5,6,7-hexahydrocyclopenta[f]indazol-5-yl]methyl}-3,5-dimethylisoxazole-4-sulfonamide]"
14,0.5,"COC(=O)c1ccccc1CS(=O)(=O)N(CC(O)C(F)(F)F)C[C@H]1CCC2=Cc3c(cnn3-c3ccc(F)cc3)C[C@@]21C (stereo partly drawn) [Example 162, methyl 2-({[{[(4αR,5S)-1-(4-fluorophenyl)-4α-methyl-1,4,4α,5,6,7-hexahydrocyclopenta[f]indazol-5-yl]methyl}(3,3,3-trifluoro-2-hydroxypropyl)amino]sulfonyl}methyl)benzoate]"
15,1.7,"C[C@]12Cc3cnn(-c4ccc(F)cc4)c3C=C1CC[C@@H]2CN(CCc1ccccc1CO)S(=O)(=O)CC(F)(F)F [Example 163, 2,2,2-trifluoro-N-{[(4αR,5S)-1-(4-fluorophenyl)-4α-methyl-1,4,4α,5,6,7-hexahydrocyclopenta[f]indazol-5-yl]methyl}-N-{2-[2-(hydroxymethyl)phenyl]ethyl}ethanesulfonamide]"
16,3.2,"C[C@]12Cc3cnn(-c4ccc(F)cc4)c3C=C1CC[C@@H]2CN(CC(O)C(F)(F)F)S(=O)(=O)Cc1ccccc1C(=O)O (stereo partly drawn) [Example 164, 2-({[{[(4αR,5S)-1-(4-fluorophenyl)-4α-methyl-1,4,4α,5,6,7-hexahydrocyclopenta[f]indazol-5-yl]methyl}(3,3,3-trifluoro-2-hydroxypropyl)amino]sulfonyl}methyl)benzoic acid]"
17,1.6,"C[C@]12Cc3cnn(-c4ccc(F)cc4)c3C=C1CC[C@@H]2CN(CCc1ccccn1)S(=O)(=O)Cc1ccccn1 [Example 165, N-{[(4αR,5S)-1-(4-fluorophenyl)-4α-methyl-1,4,4α,5,6,7-hexahydrocyclopenta[f]indazol-5-yl]methyl}-1-pyridin-2-yl-N-(2-pyridin-2-ylethyl)methanesulfonamide]"
18,1.6,"C[C@]12Cc3cnn(-c4ccc(F)cc4)c3C=C1CC[C@@H]2CN(CCc1ccccn1)S(=O)(=O)Cc1ccncc1 [Example 166, N-{[(4αR,5S)-1-(4-fluorophenyl)-4α-methyl-1,4,4α,5,6,7-hexahydrocyclopenta[f]indazol-5-yl]methyl}-1-pyridin-4-yl-N-(2-pyridin-2-ylethyl)methanesulfonamide]"
19,2.2,"C[C@]12Cc3cnn(-c4ccc(F)cc4)c3C=C1CC[C@@H]2CN(CC(O)C(F)(F)F)S(=O)(=O)Cc1ccccc1C(N)=O (stereo partly drawn) [Example 167, 2-({[{[(4αR,5S)-1-(4-fluorophenyl)-4α-methyl-1,4,4α,5,6,7-hexahydrocyclopenta[f]indazol-5-yl]methyl}(3,3,3-trifluoro-2-hydroxypropyl)amino]sulfonyl}methyl) benzamide]"
20,1.5,"Cc1noc(C)c1S(=O)(=O)N(C[C@H]1CCC2=Cc3c(cnn3-c3ccc(F)cc3)C[C@@]21C)C[C@@H](C)O [Example 168, N-{[(4αR,5S)-1-(4-fluorophenyl)-4α-methyl-1,4,4α,5,6,7-hexahydrocyclopenta[f]indazol-5-yl]methyl}-N-[(2R)-2-hydroxypropyl]-3,5-dimethylisoxazole-4-sulfonamide]"
